Measured values from patent US20100331269A1, “TRITERPENES DERIVATIVES AND USES THEREOF AS ANTITUMOR AGENTS OR ANTI-INFLAMMATORY AGENTS” (priority 2006, published 2010).

What was measured:
[1] = test system: A-549 human lung carcinoma cells; assay: Cytotoxicity, resazurin metabolism assay, A-549; assay type: cell-based; settings: 48 h, mean ± SD
Text: (§1) Human lung carcinoma (A-549), human colon adenocarcinoma (DLD-1), human normal fibroblasts (WS1), mice melanoma (B16-F1), Human glioma (U-251), Human hepatocellular carcinoma (HEP G2), Human prostate adenocarcinoma (PC-3), Human ovary teratocarcinoma metastatic (PA-1), Human breast adenocarcinona metastatic (MDA-MB-231), Human breast adenocarcinoma (MCF-7) and Human malignant melanoma (SK-MEL-2) cell lines were obtained from the American Type Culture Collection (ATCC). All cell lines were cultured in minimum essential medium containing Earle's salts and L-glutamine (Mediatech Cellgro, Va.), to which was added 10% fetal bovine serum (Hyclone), vitamins (1×), penicillin (100 I.U./mL) and streptomycin (100 μg/mL), essential amino acids (1×) and sodium pyruvate (1×) (Mediatech Cellgro, Va.). Cells were kept at 37° C. in a humidified environment containing 5% CO2.
(§2) Exponentially growing cells were plated in 96-well microplates (Costar, Corning Inc.) at a density of 5×10^3 cells per well in 100 μL of culture medium and were allowed to adhere for 16 hours before treatment. Increasing concentrations of each compound in DMSO (Sigma-Aldrich) were then added (100 μL per well) and the cells were incubated for 48 h. […] Cytotoxicity was assessed using resazurin (O'Brien, J. et al., Eur. J. Biochem. 2000, 267, 5421-5426) on an automated 96-well Fluoroskan Ascent F1™ plate reader (Labsystems) using excitation and emission wavelengths of 530 nm and 590 nm, respectively. Fluorescence was proportional to the cellular metabolic activity in each well. Survival percentage was defined as the fluorescence in experimental wells compared to that in control wells after subtraction of blank values. Each experiment was carried out three times in triplicata. IC50 results were expressed as mean±standard deviation.
(§3) The cytotoxicity of triterpenes (1-8) and corresponding glycosides (9-30) (Table 2 below) as well as of germanicane-type triterpenes and glycosides (31-44) (Table 3 below) was assessed towards human cancer (A-549, DLD-1), mouse melanoma (B16-F1) and human normal skin fibroblast (WS1) cell lines using the resazurin reduction test (RTT test) as previously described (O'Brien, J. et al., Eur. J. Biochem. 2000, 267, 5421-5426). Measurements of fluorescence were carried out after 48 continuous hours of contact between compounds and cells. Results presented in Tables 2 and 3 below express the concentration inhibiting 50% of the cell growth (IC50). Known for its activity against A-549, betulinic acid (3) was used as a positive control in this experimentation. […] The cytotoxic activity of some of these compounds was also assessed using the Hoechst DNA assay (Table 4 below).

[2] = test system: DLD-1 human colorectal adenocarcinoma cells; assay: Cytotoxicity, resazurin metabolism assay, DLD-1; assay type: cell-based; settings: 48 h, mean ± SD
Text: as §1, §2, §3

[3] = test system: WS-1 human normal skin fibroblasts; assay: Cytotoxicity, resazurin metabolism assay, WS-1; assay type: cell-based; settings: 48 h, mean ± SD
Text: as §1, §2, §3

[4] = test system: Hep G2 human hepatocellular carcinoma cells; assay: Cytotoxicity, resazurin metabolism assay, Hep G2; assay type: cell-based; settings: mean ± SD
Text: as §1, §2
(§4) Compounds presented in Table 5 below were also tested in the following tumour cell lines: U-251 (Human glioma), HEP G2 (Human hepatocellular carcinoma), PC-3 (Human prostate adenocarcinoma), PA-1 (Human ovary teratocarcinoma metastatic), MDA-MB-231 (Human breast adenocarcinona metastatic), MCF-7 (Human breast adenocarcinoma) and SK-MEL-2 (Human malignant melanoma).

[5] = test system: MCF-7 human breast adenocarcinoma cells; assay: Cytotoxicity, resazurin metabolism assay, MCF-7; assay type: cell-based; settings: mean ± SD
Text: as §1, §2, §4

[6] = test system: MDA-MB-231 human breast adenocarcinoma cells; assay: Cytotoxicity, resazurin metabolism assay, MDA-MB-231; assay type: cell-based; settings: mean ± SD
Text: as §1, §2, §4

[7] = test system: SK-Mel-2 human melanoma cells; assay: Cytotoxicity, resazurin metabolism assay, SK-Mel-2; assay type: cell-based; settings: mean ± SD
Text: as §1, §2, §4

[8] = test system: PA-1 human ovary teratocarcinoma cells; assay: Cytotoxicity, resazurin metabolism assay, PA-1; assay type: cell-based; settings: mean ± SD
Text: as §1, §2, §4

[9] = test system: PC-3 human prostate adenocarcinoma cells; assay: Cytotoxicity, resazurin metabolism assay, PC-3; assay type: cell-based; settings: mean ± SD
Text: as §1, §2, §4

[10] = test system: U-251 human glioma cells; assay: Cytotoxicity, resazurin metabolism assay, U-251; assay type: cell-based; settings: mean ± SD
Text: as §1, §2, §4

[11] = test system: B16-F1 mouse melanoma cells; assay: Cytotoxicity, resazurin metabolism assay, B16-F1; assay type: cell-based; settings: 48 h, mean ± SD
Text: as §1, §2, §3

[12] = test system: A-549 cells; assay: Cytotoxicity, Hoechst DNA assay, A-549; assay type: cell-based, human; settings: ± SD
Text: as §1, §3

[13] = test system: DLD-1 cells; assay: Cytotoxicity, Hoechst DNA assay, DLD-1; assay type: cell-based, human; settings: ± SD
Text: as §1, §3

[14] = test system: B16-F1 cells; assay: Cytotoxicity, Hoechst DNA assay, B16-F1; assay type: cell-based, mouse; settings: ± SD
Text: as §1, §3

[15] = test system: WS-1 cells; assay: Cytotoxicity, Hoechst DNA assay, WS-1; assay type: cell-based, human; settings: ± SD
Text: as §1, §3

| SMILES | IC50 [1] [µM] | IC50 [2] [µM] | IC50 [3] [µM] | IC50 [4] [µM] | IC50 [5] [µM] | IC50 [6] [µM] | IC50 [7] [µM] | IC50 [8] [µM] | IC50 [9] [µM] | IC50 [10] [µM] | IC50 [11] [µM] | IC50 [12] [µM] | IC50 [13] [µM] | IC50 [14] [µM] | IC50 [15] [µM] |
| --- | --- | --- | --- | --- | --- | --- | --- | --- | --- | --- | --- | --- | --- | --- | --- |
| C=C(C)[C@@H]1CC[C@]2(C(=O)O)CC[C@]3(C)[C@H](CC[C@@H]4[C@@]5(C)CC[C@H](O[C@@H]6OC[C@@H](O)[C@H](O)[C@H]6O)C(C)(C)[C@@H]5CC[C@]43C)[C@@H]12 [Compound 30, 3-O-β-D-Xylopyranoside of betulinic acid] | 14 ± 2 | 19.2 ± 0.8 | 21 ± 1 | 43 ± 3 | 23 ± 4 | 40 ± 4 | 36 ± 4 | 7.9 ± 0.9 | 46 ± 8 | 26 ± 6 |  |  |  |  |  |
| C=C(C)[C@@H]1CC[C@]2(CO)CC[C@]3(C)[C@H](CC[C@@H]4[C@@]5(C)CC[C@H](OC(C)=O)C(C)(C)[C@@H]5CC[C@]43C)[C@@H]12 [Compound 6, 3-Acetoxybetulin] | > 253 | > 253 | > 253 |  |  |  |  |  |  |  | > 253 | 90 ± 10 | > 253 | 42 ± 6 | > 180 |
| C=C(C)C1CCC2(CO)CCC3(C)C(CCC4C5(C)CCC(OC6OC(CO)C(O)C(O)C6O)C(C)(C)C5CCC43C)C12 [Compound 26, 3-O-β-D-Mannopyranoside of Betulin] | 7.5 ± 0.1 | 11 ± 0.5 | 5.3 ± 0.5 | 8.3 ± 0.4 | 9.2 ± 0.4 | 9.1 ± 0.2 | 8.8 ± 0.4 | 7.6 ± 0.4 | 8.6 ± 0.4 | 8.3 ± 0.4 |  |  |  |  |  |
| C=C(C)C1CCC2(COC3OC(C)C(O)C(O)C3O)CCC3(C)C(CCC4C5(C)CCC(O)C(C)(C)C5CCC43C)C12 [Compound 16, 28-O-α-L-Rhamnopyranoside of Betulin] | > 228 | > 228 | > 228 |  |  |  |  |  |  |  | > 228 | > 194 | > 194 | > 194 | > 194 |
| C=C(C)[C@@H]1CC[C@]2(C)CC[C@]3(C)[C@H](CC[C@@H]4[C@@]5(C)CC[C@H](O[C@@H]6O[C@@H](C)[C@H](O)[C@@H](O)[C@H]6O)C(C)(C)[C@@H]5CC[C@]43C)[C@@H]12 [Compound 10, 3-O-α-L-Rhamnopyranoside of lupeol] | > 178 | > 178 | > 178 |  |  |  |  |  |  |  | > 178 | > 178 | > 178 | > 178 | > 178 |
| CC1(C)CCC23CCC4(C)C(CCC5C6(C)CCC(OC7OC(CO)C(O)C(O)C7O)C(C)(C)C6CCC54C)C2C1OC3 [Compound 33, 3-O-β-D-Glucopyranoside of Allobetulin] | 31 ± 2 | 41.6 ± 0.9 | 45 ± 3 | 44 ± 5 | 51 ± 2 | 41.2 ± 0.7 | 37 ± 2 | 39 ± 2 | 42 ± 8 | 46 ± 1 |  |  |  |  |  |
| C=C(C)[C@@H]1CC[C@]2(C(=O)OC)CC[C@]3(C)[C@H](CC[C@@H]4[C@@]5(C)CC[C@H](O[C@@H]6O[C@@H](C)[C@H](O)[C@@H](O)[C@H]6O)C(C)(C)[C@@H]5CC[C@]43C)[C@@H]12 [Compound 19, 3-O-α-L-Rhamnopyranoside of Methyl Betulinate] | 59 ± 3 | > 183 | 53 ± 2 |  |  |  |  |  |  |  | 55 ± 2 | 58 ± 2 | > 150 | 46 ± 1 | 65 ± 5 |
| C=C(C)[C@@H]1CC[C@]2(CO)CC[C@]3(C)[C@H](CC[C@@H]4[C@@]5(C)CC[C@H](O)C(C)(C)[C@@H]5CC[C@]43C)[C@@H]12 [Compound 2, Betulin, reference compound] | 3.8 ± 0.09 | 6.6 ± 0.3 | 3.58 ± 0.07 |  |  |  |  |  |  |  | 13.8 ± 0.5 | 4.5 ± 0.3 | 5.9 ± 0.6 | 10.3 ± 0.7 | 5 ± 1 |
| C=CCOC(=O)C12CCC(C(=C)C)C1C1CCC3C4(C)CCC(O)C(C)(C)C4CCC3(C)C1(C)CC2 (stereo not drawn) [Compound 8, Allyl betulinate] | > 225 | > 225 | > 225 |  |  |  |  |  |  |  | > 225 | > 225 | > 225 | > 225 | > 225 |
| C=C(C)[C@@H]1CC[C@]2(C)CC[C@]3(C)[C@H](CC[C@@H]4[C@@]5(C)CC[C@H](O)C(C)(C)[C@@H]5CC[C@]43C)[C@@H]12 [Compound 1, Lupeol, reference compound] | 165 ± 8 | 125 ± 6 | 63 ± 3 |  |  |  |  |  |  |  | 104 ± 6 | 130 ± 20 | 102 ± 6 | 72 ± 9 | 70 ± 10 |
| C=C(C)[C@@H]1CC[C@]2(CO[C@@H]3O[C@H](CO)[C@@H](O)[C@H](O)[C@H]3O)CC[C@]3(C)[C@H](CC[C@@H]4[C@@]5(C)CC[C@H](O)C(C)(C)[C@@H]5CC[C@]43C)[C@@H]12 [Compound 15, 28-O-β-D-Glucopyranoside of Betulin] | > 248 | > 248 | > 248 |  |  |  |  |  |  |  | > 248 | > 194 | > 194 | > 194 | > 194 |
| C=C(C)[C@@H]1CC[C@]2(C(=O)O)CC[C@]3(C)[C@H](CC[C@@H]4[C@@]5(C)CC[C@H](O[C@@H]6O[C@H](CO)[C@@H](O)[C@H](O)[C@H]6O)C(C)(C)[C@@H]5CC[C@]43C)[C@@H]12 [Compound 21, 3-O-β-D-Glucopyranoside of Betulinic Acid] | > 178 | 32 ± 9 | > 178 |  |  |  |  |  |  |  | 49 ± 13 | > 178 | 12 ± 3 | 17 ± 4 | > 178 |
